Test results published in US10538571B2, “Compositions and methods for neurological diseases” (Coda Biotherapeutics, Inc., priority 2017, dated 2020).

Experiments:
Type in all cases: cell-based
[1] = target: T1, engineered chimeric LGIC receptor SEQ ID NO:33 (α7-nAChR ligand binding domain with GlyRα1 Cys-loop, GlyRα1 ion pore domain) (Homo sapiens, UniProt P36544, F159M/H163T/I152M/R155K/V154L/W156N/Y151P); test: Two electrode voltage clamp currents in Xenopus oocytes expressing the receptor; conditions: Xenopus oocytes; FIG. 5
T1 construct: expressed in transfected cells; host or cells: Xenopus oocytes (cDNA injection)
T1 sequence (P36544 with tags, fused parts or gaps Y151P/I152M/V154L/R155K/W156N/F159M/H163T): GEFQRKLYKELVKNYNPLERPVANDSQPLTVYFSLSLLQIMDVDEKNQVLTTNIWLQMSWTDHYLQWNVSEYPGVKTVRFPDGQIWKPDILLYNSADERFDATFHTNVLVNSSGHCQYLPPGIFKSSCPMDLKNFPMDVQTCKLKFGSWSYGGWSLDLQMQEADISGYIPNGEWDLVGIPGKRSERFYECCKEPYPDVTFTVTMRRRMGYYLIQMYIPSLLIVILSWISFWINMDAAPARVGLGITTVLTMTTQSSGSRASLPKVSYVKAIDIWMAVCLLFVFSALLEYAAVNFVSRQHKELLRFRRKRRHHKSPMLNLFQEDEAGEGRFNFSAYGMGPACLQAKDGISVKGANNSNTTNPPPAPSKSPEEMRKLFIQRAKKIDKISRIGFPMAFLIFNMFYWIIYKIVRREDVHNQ
Procedure: (§1) For Xenopus oocyte studies, injections of cDNAs encoding for ion channels at a final concentration of 0.04 μg/μL were performed using a proprietary automated injection device and receptor expression examined at least two days later. Oocytes were poked with two electrodes and their membrane potential maintained at −80 mV throughout the experiment. All recordings were performed at 18° C. and cells were superfused with OR2 medium containing in mM: NaCl 82.5, KCl 2.5, HEPES 5, CaCl2.2H2O 1.8, MgCl2.6H2O 1, pH 7.4. Recordings progressed if oocytes had sufficiently low holding current, in which case they were then subjected to ligand or test compound application (5-10 s wash intervals), with 100 s of wash in between doses. Currents evoked by acetylcholine or other agonists were recorded using an automated process equipped with standard two electrode voltage clamp configuration (TEVC). Data were captured and analyzed using HiQScreen proprietary data acquisition and analysis software running under Matlab (Mathworks Inc.). Acetylcholine was prepared as a concentrated stock solution (10-1 M) in water and then diluted in the recording medium to obtain the desired test concentration. Nicotine was diluted in water as stock solution (10-1 M), kept frozen and diluted immediately prior to the experiment at the desired concentration. Compounds were prepared as stock solution (10-1M) in OR2 and then diluted in the recording medium to obtain the desired test concentration. Stock solution for Compound-1 was made in OR2 at pH 5 adjusted with HCl. To assess that dilution at the final concentration of this stock solution introduced no significant changes, the pH of the final solution was confirmed using a colorimetric assay (Galietta L. J. V., et al. 2001. FEBS Letters 499: 220-224. Kruger W., et al. (2005). Neuroscience Letters 380: 340-345.)
(§2) To better understand the impact of the heterologous domains that had been inserted into the channels, the ligand-dependent response profiles of wild type α7-nAChR and various engineered chimeric LGIC receptors to acetylcholine as well as to non-native ligands TC-6987, AZD-0328, and Facinicline/RG3487 were assessed. Receptors were transiently expressed in […] cells and currents were measured on an automated patch clamp system (Fluxion Biosciences) following 1 second addition of drug. Inclusion of a GlyRα1 Cys-loop sequence in the extracellular domain increased the potency of all small molecules on the engineered receptor (leftward shift in EC50) (e.g. SEQ ID NO:35, FIG. 4C vs SEQ ID NO:16, FIG. 4B). […] Inclusion of both the Cys-loop and β1-β2 loop sequences of GlyRα1 in the extracellular domain reduced the sensitivity by about 1 log from that observed with the full Cys-loop sequence alone, but further increased conductance approximately 2-fold and slowed the rate of deactivation of the channel (SEQ ID NO:41, FIG. 4E vs. SEQ ID NO:33, FIG. 4D).

[2] = target: T2, engineered chimeric LGIC receptor SEQ ID NO:41 (as SEQ ID NO:33, further comprising the β1-β2 loop domain from GlyRα1) (Homo sapiens, UniProt P36544, F159M/H163T/I152M/K68T/N69T/Q70M/R155K/V154L/W156N/Y151P); test: as above; conditions: FIG. 5
T2 construct: expressed in transfected cells; host or cells: Xenopus oocytes (cDNA injection)
T2 sequence (P36544 with tags, fused parts or gaps K68T/N69T/Q70M/Y151P/I152M/V154L/R155K/W156N/F159M/H163T): as the sequence (P36544 with tags, fused parts or gaps Y151P/I152M/V154L/R155K/W156N/F159M/H163T) above, with K46T, N47T, Q48M counted along it
Procedure: as §1, §2

[3] = target: T3, SEQ ID NO:33 with substitution L131S (Homo sapiens, UniProt P36544, F159M/H163T/I152M/L131S/R155K/V154L/W156N/Y151P); test: Electrophysiology, automated patch clamp in HEK293T cells; conditions: FIG. 10A
T3 construct: expressed in transfected cells; host or cells: Lenti-X 293T (HEK293T) cells, pcDNA3.1(+) plasmid
T3 sequence (P36544 with tags, fused parts or gaps L131S/Y151P/I152M/V154L/R155K/W156N/F159M/H163T): as the sequence (P36544 with tags, fused parts or gaps Y151P/I152M/V154L/R155K/W156N/F159M/H163T) above, with L109S counted along it
Procedure: (§3) For HEK293T studies, cDNAs encoding ion channels were cloned into pcDNA3.1 using standard recombination techniques. HEK293T cells from Clontech (Lenti-X™ 293T Cell Line) were cultured in DMEM supplemented with 10% FBS and 1% Pen/Strep to 40-50% confluence using standard cell culture protocols, transfected with ion channel plasmids at a concentration of 18 μg per 15 cm dish using Fugene 6, and grown for an additional 24 hours. Cells were then assayed on a medium throughput electrophysiological system (IonFluxHT and/or Mercury, Fluxion Biosciences) in which dose-response relationships may be assessed through a microfluidics-based platform for establishing whole cell configurations. Ensemble plates were primed with extracellular buffer (140 mM NaCl, 5 mM KCl, 2 mM CaCl2, 1 mM MgCl2, 10 mM HEPES, and 10 mM glucose, pH 7.2 with NaOH, mOsm 310), intracellular buffer (145 mM CsCl, 2 mM CaCl2, 2 mM MgCl2, 10 mM HEPES, and 10 mM EGTA, pH 7.2 with CsOH, mOsm 305), as adapted from Lynagh and Lynch, and test compounds (stocks prepared fresh) diluted in extracellular buffer. Cells were then released from the plate with Accutase, centrifuged, resuspended in extracellular buffer, and loaded into Ensemble plates. Cells were then subjected to a standard protocol for priming, trapping, breaking, and establishing whole cell configuration, with cells held at −60 mV throughout the recording. After recording baseline, progressive doses of test compounds were applied using the IonFlux software to assess dose response relationships. Data were then analyzed off-line using custom Python scripts to convert data to .csv format, re-plot traces, and apply QC measurements to reject unstable recordings (i.e. thresholding based on access resistance and/or standard deviation in baseline, as well as artifact rejection). Peak currents were then calculated and population data were fit using a 4-parameter logistic equation as described by the Hill Equation

[4] = target: T4, SEQ ID NO:33 with substitution L131T (Homo sapiens, UniProt P36544, F159M/H163T/I152M/L131T/R155K/V154L/W156N/Y151P); test: as above; conditions: FIG. 10D
T4 construct: expressed in transfected cells; host or cells: Lenti-X 293T (HEK293T) cells, pcDNA3.1(+) plasmid
T4 sequence (P36544 with tags, fused parts or gaps L131T/Y151P/I152M/V154L/R155K/W156N/F159M/H163T): as the sequence (P36544 with tags, fused parts or gaps Y151P/I152M/V154L/R155K/W156N/F159M/H163T) above, with L109T counted along it
Procedure: as §3

[5] = target: T5, SEQ ID NO:33 with substitution S172D (Homo sapiens, UniProt P36544, F159M/H163T/I152M/R155K/S172D/V154L/W156N/Y151P); test: as above; conditions: FIG. 10B
T5 construct: expressed in transfected cells; host or cells: Lenti-X 293T (HEK293T) cells, pcDNA3.1(+) plasmid
T5 sequence (P36544 with tags, fused parts or gaps Y151P/I152M/V154L/R155K/W156N/F159M/H163T/S172D): as the sequence (P36544 with tags, fused parts or gaps Y151P/I152M/V154L/R155K/W156N/F159M/H163T) above, with S150D counted along it
Procedure: as §3

[6] = target: T6, SEQ ID NO:33 with substitution W77M (Homo sapiens, UniProt P36544, F159M/H163T/I152M/R155K/V154L/W156N/W77M/Y151P); test: as above; conditions: FIG. 10C
T6 construct: expressed in transfected cells; host or cells: Lenti-X 293T (HEK293T) cells, pcDNA3.1(+) plasmid
T6 sequence (P36544 with tags, fused parts or gaps W77M/Y151P/I152M/V154L/R155K/W156N/F159M/H163T): as the sequence (P36544 with tags, fused parts or gaps Y151P/I152M/V154L/R155K/W156N/F159M/H163T) above, with W55M counted along it
Procedure: as §3

c1cnc2c(c1)C[C@@]1(CN3CCC1CC3)O2 [AZD-0328]
fold more sensitive than wild type α7-nAChR [1]: approximately 3 fold | sensitivity of SEQ ID NO:41 to ligand compared with wild type α7-nAChR [2]: comparably sensitive | right-ward shift in EC50 relative to parental chimera SEQ ID NO:33 [3]: 2 fold | right-ward shift in EC50 relative to parental chimera SEQ ID NO:33 [4]: ~1 log | right-ward shift in EC50 relative to parental chimera SEQ ID NO:33 [5]: 2 fold | right-ward shift in EC50 relative to parental chimera SEQ ID NO:33 [6]: > 2.5 log
